This note sets out measurements from BindingDB's records for doi:10.1016/j.bmcl.2009.03.008 (Roche R & D Center(China), 2009).

Molecules are shown by their SMILES. pEC50, pIC50: −log10 of the molar value.

The target in this assay is T1, Bile acid receptor (Homo sapiens, UniProt Q96RI1).
T1 sequence (Q96RI1 whole entry): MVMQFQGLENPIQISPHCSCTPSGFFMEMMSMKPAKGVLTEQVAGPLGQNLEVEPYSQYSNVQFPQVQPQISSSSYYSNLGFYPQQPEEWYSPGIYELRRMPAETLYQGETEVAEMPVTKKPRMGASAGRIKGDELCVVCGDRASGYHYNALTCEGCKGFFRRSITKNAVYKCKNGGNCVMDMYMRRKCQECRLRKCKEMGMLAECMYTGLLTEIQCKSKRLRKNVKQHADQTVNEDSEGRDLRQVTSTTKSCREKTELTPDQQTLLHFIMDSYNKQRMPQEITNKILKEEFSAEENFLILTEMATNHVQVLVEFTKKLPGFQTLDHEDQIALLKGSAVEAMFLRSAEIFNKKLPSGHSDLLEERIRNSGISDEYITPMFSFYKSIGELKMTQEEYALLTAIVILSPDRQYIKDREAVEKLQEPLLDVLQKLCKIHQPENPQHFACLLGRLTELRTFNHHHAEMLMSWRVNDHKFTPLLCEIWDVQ
Description: Scintillation Proximity Assay. The settings on record: pH 8; 22 °C. The protocol:
Binding affinity (IC50) was evaluated using scintillation proximity assay with radiolabeled ligand and biotinylated receptor. Because the scintillant is contained within the SPA bead, only radiolabel that is attached to the bead is detected. The receptor-ligand complex is bound to the bead through interaction between the biotinylated receptor and the streptavidin moiety located on the surface of the bead.
A general note: SPA uses beads or plates that emit light when radiolabelled molecules are held near them.
On to `Cc1cc(OCc2c(-c3c(Cl)ccc(=O)n3C)noc2C(C)Cl)ccc1-c1ccc2c(C(=O)O)cn(C)c2c1` (centres undefined) [3-aryl isoxazole analog, 7f], for which the pIC50 (commonly the negative decadic logarithm of the IC50, by convention in mol/L) is 6.06.
For `Cc1cc(OCc2c(-c3ccn(C)c(=O)c3Cl)noc2C(C)Cl)ccc1-c1ccc2c(C(=O)O)cn(C)c2c1` (centres undefined) [3-aryl isoxazole analog, 7d], the pEC50 (in general, the negative decadic logarithm of the EC50, by convention in mol/L) is 5.15 and the pIC50 was 5.13.
In turn, `Cc1cc(OCc2c(-c3c(Cl)c[n+]([O-])cc3Cl)noc2C(C)Cl)ccc1-c1ccc2c(C(=O)O)cn(C)c2c1` (centres undefined) [3-aryl isoxazole analog, 7b] showed a pIC50 of 7.35.
Same read-out and setting: next, `Cc1cc(OCc2c(-c3[nH]c(=O)ccc3Cl)noc2C(C)Cl)ccc1-c1ccc2c(C(=O)O)cn(C)c2c1` (centres undefined) [3-aryl isoxazole analog, 7h]: 5.29; `Cc1cc(OCc2c(-c3cc[nH]c(=O)c3Cl)noc2C(C)Cl)ccc1-c1ccc2c(C(=O)O)cn(C)c2c1` (centres undefined) [3-aryl isoxazole analog, 7c]: 5.96; `Cc1cc(OCc2c(-c3c(Cl)cn(C)c(=O)c3Cl)noc2C(C)Cl)ccc1-c1ccc2c(C(=O)O)cn(C)c2c1` (centres undefined) [3-aryl isoxazole analog, 7e]: 5.38.
In turn, `COc1ccc(Cl)c(-c2noc(C(C)Cl)c2COc2ccc(-c3ccc4c(C(=O)O)cn(C)c4c3)c(C)c2)n1` (centres undefined) [3-aryl isoxazole analog, 7g] gave a pEC50 of 5.70 and a negative logarithm of the IC50 (pIC50) of 6.12.
